Converted amounts (≈) assume the structure as drawn.
Key:
non-fastidious bacteria = assay: Activity against non-fastidious bacteria (panel); settings: for activity against Gram-positive non-fastidious bacteria: pathogenic Gram-positive bacteria
[1] = test system: dihydroorotate dehydrogenase (DHODH); assay: DHODH assay; format: biochemical; settings: test concentration not given
Procedure: 100 μl chalcone or 0.1 M Tris-HCl pH 8.0 is added to a well in a 96-wells microtiter plate. Then 50 μl enzyme dilution is added. The microtiter plate is placed in the Powerwavex340 and the enzymatic reactions starts when adding 100 μl assay mixture. The reaction are measured every 20 sec. for 10 min. The samples with chalcones are compared with the samples with 0.1 M Tris-HCl pH 8.0 and the percent inhibition is calculated.
Enzyme dilution: The solution of recombinant purified enzyme is dissolved in 0.1 M Tris-HCl pH 8 to give an initial velocity of 0.04-0.05 ΔA/min.
2,6-dichlorophenolindophenol (DCIP)-stock solution: 40 mg DCIP and 10 ml 99% Ethanol are mixed for 10 min at RT. Then 100 μl 1.0 M Tris-HCl pH 8 and milliQ H20 are added to a final volume of 100 ml. The A600 of the DCIP-stock solution are measured in a microtiter plate on the Powerwavex340 (Bio-Tek instruments, Inc.)
[…]-stock solution: 25 mM dihydroorotate stock-solution is prepared by first dissolving in the same amount of mol NaOH and then miliQ H20 is added to the final volume.
Assay mix (10 ml solution): 600 μl of DHODH-stock solution and X ml (depending on the A600 value of stock-solution) DCIP to a final A600=2.5 are mixed. Then 0.1 M Tris-HCl pH 8.0 are added to a final volume of 10 ml.
Preparation of compound solution: A 10 mM stock-solution of compound (e.g. a chalcone derivative) is made in dimethylsulfoxid (DMSO). The compound is then diluted in 0.1 M Tris-HCl pH 8 to the test concentrations. The final DMSO concentration in the sample is 10%

[2] = test system: Staphylococcus aureus ATCC29213; assay: MIC determination in broth microdilution assay; settings: A: Staphylococcus aureus ATCC29213; NA: no activity
Eschericia coli ESS = assay: MIC determination in broth microdilution assay; settings: for MIC: H: Eschericia coli ESS, NA: no activity
S. aureus ATCC29213 = assay: Killing curve (time-kill) / broth macrodilution MIC; format: cell-based, Staphylococcus aureus; settings: for bactericidal or bacteriostatic (time-kill curve): S. aureus ATCC29213, concentrations above the MIC
[3] = test system: Bacteroides fragilis, Clostridium perfringens, Clostridium difficele; format: cell-based; settings: single concentration of compound (100 μM)
[4] = test system: Enterococcus faecalis ATCC29212; assay: MIC determination in broth microdilution assay; settings: D: Enterococcus faecalis ATCC29212; NA: no activity
[5] = test system: Enterococcus faecium #17501 (vancomycin-resistant clinical isolate); assay: MIC determination in broth microdilution assay; settings: E: Enterococcus faecium #17501 (vancomycin-resistant); NA: no activity
[6] = test system: Streptococcus pneumoniae #998 (clinical isolate); assay: MIC determination in broth microdilution assay; settings: F: Streptococcus pneumoniae #998; NA: no activity
[7] = test system: Staphylococcus intermedius #2357 (clinical isolate); assay: MIC determination in broth microdilution assay; settings: C: Staphylococcus intermedius #2357; NA: no activity
[8] = test system: Staphylococcus aureus ATCC33591 (resistant to methicillin); assay: MIC determination in broth microdilution assay; settings: B: Staphylococcus aureus ATCC33591 (resistant to methicillin); NA: no activity
[9] = Determination of metabolic stability (liver microsomes); format: in vitro ADME, Wistar rat; settings: for Metabolic turn-over in vitro: rat liver microsomes, 20 μM, 15 min at 37° C.
Procedure: incubations were performed with Wistar rat liver microsomes (0.25 mg/ml) in 2% sodium bicarbonate solution. NADP (0.13 mg/ml), glucose-6-phosphate (0.63 mg/ml) and glucose-6-phosophate dehydrogenase (0.38 units/ml) were used as NADPH generation system and UDPGA (0.48 mg/ml) was added to include the phase II reaction, glucuronic acid conjugation, in the assay. After 5 minutes of pre-incubation the reaction was started by addition of the test article to give a final concentration of 20 μM. Samples were incubated for 15 min at 37° C. and the reactions were terminated by addition of equal volumes of acetonitrile. Blank incubations were performed at the same concentration but without addition of microsomes. Both blank and microsome-containing samples were made in replicats of three. Prior to analysis samples were centrifuged for 10 min. at 3500 rpm, HPLC system:
Initial conditions were 40% mobile phase A (acetonitrile) and 60% mobile phase B (10 mM ammonium acetate pH 9.5). During the first 20 minutes, the mobile phase was changed via a linear gradient to 90% A and 10% B. This was followed by a 5 minutes linear gradient to initial conditions, which were maintained for 5 min. The flow rate was 0.20 ml/min and injection volume 10 μl.

[10] = test system: Eschericia coli ATCC25922; assay: MIC determination in broth microdilution assay; settings: for MIC: G: Eschericia coli ATCC25922, NA: no activity
L. major promastigotes = assay: Leishmania promastigote assay (3H-thymidine); settings: L. major
[11] = test system: Plasmodium falciparum 3D7; assay: Plasmodium falciparum assay (3H-phenylalanine labelling); format: cell-based; settings: Plasmodium falciparum 3D7 (Table 2); read-out: IC50

COc1ccc(C(=O)/C=C/c2ccccc2)cc1 [4′MC, 4′methoxy chalcone, reference compound]
activity against Gram-positive non-fastidious bacteria (non-fastidious bacteria): no antibacterial effect at all | Inhibition of DHODH [1]: 7%

CN(C)CCN(C)c1cccc(C(=O)/C=C/c2ccc(Cl)cc2Cl)c1 [B015, (E)-3-(2,4-Dichloro-phenyl)-1-{3-[(2-dimethylamino-ethyl)-methyl-amino]-phenyl}-propenone]
Inhibition of DHODH [1]: 25%

CN(C)CCN(C)c1cccc(C(=O)/C=C/c2cc(F)ccc2F)c1 [B017, (E)-3-(2,5-Difluoro-phenyl)-1-{3-[(2-dimethylamino-ethyl)-methyl-amino]-phenyl}-propenone]
Inhibition of DHODH [1]: 23%

CN(C)CCN(C)c1cccc(C(=O)/C=C/c2ccc(Br)cc2F)c1 [B018, (E)-3-(4-Bromo-2-fluoro-phenyl)-1-{3-[(2-dimethylamino-ethyl)-methyl-amino]-phenyl}-propenone]
Inhibition of DHODH [1]: 22%

CCCCN(CCCC)c1cccc(/C=C/C(=O)c2ccccc2NCCN(C)C)c1 [B041, (E)-3-(3-Dibutylamino-phenyl)-1-[2-(2-dimethylamino-ethylamino)-phenyl]-propenone]
MIC [2]: 4.7 µM (≈ 1.98 µg/mL) | MIC (Eschericia coli ESS): 300.0 µM (≈ 126 µg/mL) | MIC (time-kill curve figure) (S. aureus ATCC29213; S. aureus ATCC29213): 9.4 µM (≈ 3.96 µg/mL) | dependence of the bactericidal action (S. aureus ATCC29213; S. aureus ATCC29213): primarily dependent on incubation time | bactericidal or bacteriostatic (time-kill curve) (S. aureus ATCC29213): bactericidal | activity against anaerobic bacteria [3]: activity against all microorganisms within the test panel | MIC [4]: 9.4 µM (≈ 3.96 µg/mL) | MIC [5]: 9.4 µM (≈ 3.96 µg/mL) | MIC [6]: 18.8 µM (≈ 7.93 µg/mL) | MIC [7]: 9.4 µM (≈ 3.96 µg/mL) | MIC [8]: 4.7 µM (≈ 1.98 µg/mL)

COc1ccc(C(=O)/C=C/c2ccccc2N(C)CCN(C)C)c(F)c1 [B058, (E)-3-{2-[(2-Dimethylamino-ethyl)-methyl-amino]-phenyl}-1-(2-fluoro-4-methoxy-phenyl)-propenone]
Inhibition of DHODH [1]: 17%

Cc1cc(C)cc(-c2ccc(N3CCN(C)CC3)c(/C=C/C(=O)c3cccc(NCCN(C)C)c3)c2)c1 [B101, (E)-1-[3-(2-Dimethylamino-ethylamino)-phenyl]-3-[3′,5′-dimethyl-4-(4-methyl-piperazin-1-yl)-biphenyl-3-yl]-propenone]
MIC [2]: 4.7 µM (≈ 2.33 µg/mL) | Metabolic turn-over in vitro [9]: 3% | MIC (Eschericia coli ESS): 4.7 µM (≈ 2.33 µg/mL) | activity against Gram-positive non-fastidious bacteria (non-fastidious bacteria): increased potency | MIC [10]: 9.4 µM (≈ 4.67 µg/mL) | MIC [4]: 4.7 µM (≈ 2.33 µg/mL) | MIC [5]: 4.7 µM (≈ 2.33 µg/mL) | MIC [6]: 4.7 µM (≈ 2.33 µg/mL) | MIC [7]: 9.4 µM (≈ 4.67 µg/mL) | MIC [8]: 4.7 µM (≈ 2.33 µg/mL)

COc1ccc(C(=O)/C=C/c2cc(-c3cc(C)cc(C)c3)ccc2N2CCN(C)CC2)c(CN(C)C)c1 [B102, (E)-1-(2-Dimethylaminomethyl-4-methoxy-phenyl)-3-[3′,5′-dimethyl-4-(4-methyl-piperazin-1-yl)-biphenyl-3-yl]-propenone]
MIC [2]: 4.7 µM (≈ 2.34 µg/mL) | MIC (Eschericia coli ESS): 4.7 µM (≈ 2.34 µg/mL) | activity against Gram-positive non-fastidious bacteria (non-fastidious bacteria): increased potency | MIC [10]: 37.5 µM (≈ 18.7 µg/mL) | MIC [4]: 9.4 µM (≈ 4.68 µg/mL) | MIC [5]: 9.4 µM (≈ 4.68 µg/mL) | MIC [6]: 4.7 µM (≈ 2.34 µg/mL) | MIC [7]: 18.8 µM (≈ 9.36 µg/mL) | MIC [8]: 9.4 µM (≈ 4.68 µg/mL)

Cc1cc(C)cc(-c2ccc(N3CCN(C)CC3)c(/C=C/C(=O)c3ccccc3N)c2)c1 [B115, (E)-1-(2-Amino-phenyl)-3-[3′,5′-dimethyl-4-(4-methyl-piperazin-1-yl)-biphenyl-3-yl]-propenone]
MIC [2]: 4.7 µM (≈ 2 µg/mL) | Metabolic turn-over in vitro [9]: 0% | MIC (Eschericia coli ESS): 9.4 µM (≈ 4 µg/mL) | activity against Gram-positive non-fastidious bacteria (non-fastidious bacteria): increased potency | MIC [4]: 4.7 µM (≈ 2 µg/mL) | MIC [5]: 4.7 µM (≈ 2 µg/mL) | MIC [6]: 9.4 µM (≈ 4 µg/mL) | MIC [7]: 4.7 µM (≈ 2 µg/mL) | MIC [8]: 4.7 µM (≈ 2 µg/mL)

Cc1cc(C)cc(-c2ccc(N3CCNCC3)c(/C=C/C(=O)c3cccc(NCCN(C)C)c3)c2)c1 [B116, (E)-1-[3-(2-Dimethylamino-ethylamino)-phenyl]-3-(3′,5′-dimethyl-4-piperazin-1-yl-biphenyl-3-yl)-propenone]
MIC [2]: 2.4 µM (≈ 1.16 µg/mL) | activity against ESS strain of E. coli (Eschericia coli ESS): high activity | MIC (Eschericia coli ESS): 4.7 µM (≈ 2.27 µg/mL) | activity against E. coli ATCC25922 [10]: high activity | MIC [10]: 4.7 µM (≈ 2.27 µg/mL) | MIC [4]: 4.7 µM (≈ 2.27 µg/mL) | MIC [5]: 4.7 µM (≈ 2.27 µg/mL) | MIC [6]: 4.7 µM (≈ 2.27 µg/mL) | MIC [7]: 4.7 µM (≈ 2.27 µg/mL) | MIC [8]: 4.7 µM (≈ 2.27 µg/mL)

COc1ccc(C(=O)/C=C/c2cc(-c3cc(C)cc(C)c3)ccc2N2CCNCC2)c(CN(C)C)c1 [B117, (E)-1-(2-Dimethylaminomethyl-4-methoxy-phenyl)-3-(3′,5′-dimethyl-4-piperazin-1-yl-biphenyl-3-yl)-propenone]
MIC [2]: 4.7 µM (≈ 2.27 µg/mL) | MIC (Eschericia coli ESS): 4.7 µM (≈ 2.27 µg/mL) | MIC [10]: 18.8 µM (≈ 9.09 µg/mL) | MIC [4]: 4.7 µM (≈ 2.27 µg/mL) | MIC [5]: 4.7 µM (≈ 2.27 µg/mL) | MIC [7]: 9.4 µM (≈ 4.55 µg/mL) | MIC [8]: 4.7 µM (≈ 2.27 µg/mL)

COc1ccc(C(=O)/C=C/c2cc(-c3ccccc3OC)ccc2N2CCCN(C)CC2)c(F)c1 [B143, (E)-1-(2-Fluoro-4-methoxy-phenyl)-3-[2′-methoxy-4-(4-methyl-[1,4]diazepan-1-yl)-biphenyl-3-yl]-propenone]
MIC (time-kill curve figure) (S. aureus ATCC29213; S. aureus ATCC29213): 9.4 µM (≈ 4.46 µg/mL) | bactericidal or bacteriostatic (time-kill curve) (S. aureus ATCC29213): bactericidal

Cc1ccccc1-c1ccc(N2CCN(C)CC2)c(/C=C/C(=O)c2ccc(O)c(CN(C)C)c2)c1 [B208, (E)-1-(3-Dimethylaminomethyl-4-hydroxy-phenyl)-3-[2′-methyl-4-(4-methyl-piperazin-1-yl)-biphenyl-3-yl]-propenone]
IC50 (L. major promastigotes): 1100 nM | IC50 [11]: 400 nM

Cc1ccccc1-c1ccc(N2CCN(C)CC2)c(/C=C/C(=O)c2cccc(NC(=O)CN(C)C)c2)c1 [B211, 2-Dimethylamino-N-(3-{3-[2′-methyl-4-(4-methyl-piperazin-1-yl)-biphenyl-3-yl]-(E)-acryloyl}-phenyl)-acetamide]
IC50 [11]: 700 nM

C=CC(C)(C)c1cc(/C=C/C(=O)c2ccc(O)cc2)c(OC)cc1O [LicA, Licochalcone A]
turn-over in vitro [9]: 100% | Metabolic turn-over in vitro [9]: 100% | MIC (Eschericia coli ESS): 300.0 µM (≈ 102 µg/mL) | activity against Gram-positive non-fastidious bacteria (non-fastidious bacteria): moderate bactericidal activity | activity against Escherichia coli (non-fastidious bacteria; prototype pathogenic Gram-negative bacterium): only modest or no activity | MIC [6]: 75.0 µM (≈ 25.4 µg/mL) | Inhibition of DHODH [1]: 25%
